Assays:
dsDNA, ssDNA, and RNA = assay: Selectivity test on dsDNA, ssDNA, and RNA in TE buffer; conditions: 2 μM dye, 10 μg/mL nucleic acid, 1×TE buffer, ex 480 nm (36, 40) or 620 nm (49), FIG. 2
Experimental: Compound 36, compound 40, and compound 49 were prepared in 2 μM concentration in 1×TE buffer, individually. Salmon sperm dsDNA, calf thymus ssDNA, and E. coli rRNA were prepared in 10 μg/mL concentration in 1×TE buffer, individually. Equal amount of each solution of dsDNA, ssDNA, and RNA was added to the solutions of compound 36, compound 40 and compound 49, individually. The emission spectrum associated with each of the solutions was scanned at excitation wavelength 480 nm for compound 36 and 40, and at excitation wavelength 620 nm for compound 49.

[1] = tested on: live and fixed HeLa cells; assay: Cellular nucleic acid staining; type: cell-based; conditions: 1 μM in PBS buffer, 10 min, fluorescence microscopy, FIG. 5
Experimental: Compound 38, compound 42, and compound 61 were prepared in 1 mM stock solution in water, respectively. Each compound at 1 μM concentration in PBS buffer was incubated with live and fixed HeLa cells in 96-well plate for 10 min, respectively. The fluorescence imaging of cells was taken on a fluorescence microscopy with a 488 nm excitation laser and a 520±15 nm emission filter, as shown in FIG. 5.

DNA or RNA = assay: Binding selectivity on DNA or RNA (effect of R3); conditions: R3 methyl 4-benzoate versus R3 H
nucleic acids = conditions: background; cited from earlier work
[2] = background; cited from earlier work

COCCOCCOCCOCCN1C(N(CCC[N+](C)(C)C)CCC[N+](C)(C)C)=C/C(=C/c2sc3ccccc3[n+]2C)c2ccccc21 [Compound 40]
selectivity among dsDNA, ssDNA and RNA (fluorescence emission spectra) (dsDNA, ssDNA, and RNA): good selectivity for DNA versus RNA

CC[N+](C)(CC)Cc1ccc(C2=C/C(=C/c3sc4ccccc4[n+]3C)c3ccccc3N2CCOCCOCCOCCOC)cc1 [Compound 42]
live cell permeability [1]: live cell impermeant

CN(C)CCCN(CCCN(C)C)C1=C/C(=C\C=C\c2sc3ccc(S(=O)(=O)[O-])cc3[n+]2C)c2ccccc2N1C [Compound 53]
binding selectivity on DNA or RNA (DNA or RNA): high selectivity for DNA over RNA

CN(C)CCCN(CCCN(C)C)C1=C/C(=C\c2sc3ccccc3[n+]2C)c2ccccc2N1CCCCCC(=O)NCCOCCO.[I-] [Compound 61]
live cell permeability [1]: live cell impermeant

CCCN1C=C/C(=C\c2sc3ccccc3[n+]2C)c2ccccc21 [SYBR Safe]
detection sensitivity on nucleic acids (nucleic acids): low sensitive than desired

CN1C(=Cc2cc[n+](C)c3ccccc23)Sc2ccccc21 [Thiazole Orange]
detection sensitivity on nucleic acids (nucleic acids): low detection sensitivity

CC[n+]1c(-c2ccccc2)c2cc(N)ccc2c2ccc(N)cc21 [ethidium bromide, Ethidium bromide]
mutagenicity [2]: mutagenic

— patent publication US8742114B2, “Nucleic acid detections and methods of their use” (priority 2011, dated 2014)
